Reference: patent publication US20100061982A1, “3-SUBSTITUTED-1H-INDOLE, 3-SUBSTITUTED-1H-PYRROLO[2,3-B]PYRIDINE AND 3-SUBSTITUTED-1H-PYRROLO[3,2-B]PYRIDINE COMPOUNDS, THEIR USE AS MTOR KINASE AND PI3 KINASE INHIBITORS, AND THEIR SYNTHESES” (priority 2008, published 2010)
Converted amounts (≈) assume the structure as drawn.

Key:
[1] = PAMPA permeability pH 7.4
[2] = Buffer Stability (37° C.)
[3] = CACO2 permeability a-b/b-a; format: in vitro ADME; details: human, Caco-2; for Papp A→B: a − b (first value of cell), read-out: CACO2 Pe a − b; for Papp B→A: b − a (second value of cell), read-out: CACO2 Pe b − a
[4] = Microsome Stability (15 min), rat; format: in vitro ADME; details: microsomes, Phase I (NADPH), read-out: Microsome Stability (15 min) T ½ Phase I rat
[5] = Microsome Stability (15 min), nude mouse; format: in vitro ADME; details: microsomes, Phase I (NADPH), read-out: Microsome Stability (15 min) T ½ Phase I nude mouse
[6] = Plasma Stability (37° C.), nude mouse
[7] = In vivo blood/plasma and tumor levels of prodrug and metabolites after 50 mg, kg po; details: for plasma prodrug concentration / tumor prodrug concentration: 50 mg
[8] = Microsome Stability (15 min), human; format: in vitro ADME; details: microsomes, Phase I (NADPH), read-out: Microsome Stability (15 min) T ½ Phase I human
[9] = target: PI3K alpha (Homo sapiens, UniProt P42336); test: PI3K-alpha Fluorescence Polarization Assay; format: biochemical
[10] = Plasma Stability (37° C.), rat
[11] = Solubility pH 7.4; details: pH 7.4, aqueous buffer
[12] = target: mTOR (Homo sapiens, UniProt P42345); test: mTOR Enzyme Assay (DELFIA, purified enzyme); format: biochemical; parameters: FLAG; details: read-out: mTOR Mean IC50
[13] = test system: human tumor xenograft models; details: prostrate (PC-3) and glioblastoma (U-87); cited from earlier work

PI3K alpha, sequence (P42336 whole entry, species assumed): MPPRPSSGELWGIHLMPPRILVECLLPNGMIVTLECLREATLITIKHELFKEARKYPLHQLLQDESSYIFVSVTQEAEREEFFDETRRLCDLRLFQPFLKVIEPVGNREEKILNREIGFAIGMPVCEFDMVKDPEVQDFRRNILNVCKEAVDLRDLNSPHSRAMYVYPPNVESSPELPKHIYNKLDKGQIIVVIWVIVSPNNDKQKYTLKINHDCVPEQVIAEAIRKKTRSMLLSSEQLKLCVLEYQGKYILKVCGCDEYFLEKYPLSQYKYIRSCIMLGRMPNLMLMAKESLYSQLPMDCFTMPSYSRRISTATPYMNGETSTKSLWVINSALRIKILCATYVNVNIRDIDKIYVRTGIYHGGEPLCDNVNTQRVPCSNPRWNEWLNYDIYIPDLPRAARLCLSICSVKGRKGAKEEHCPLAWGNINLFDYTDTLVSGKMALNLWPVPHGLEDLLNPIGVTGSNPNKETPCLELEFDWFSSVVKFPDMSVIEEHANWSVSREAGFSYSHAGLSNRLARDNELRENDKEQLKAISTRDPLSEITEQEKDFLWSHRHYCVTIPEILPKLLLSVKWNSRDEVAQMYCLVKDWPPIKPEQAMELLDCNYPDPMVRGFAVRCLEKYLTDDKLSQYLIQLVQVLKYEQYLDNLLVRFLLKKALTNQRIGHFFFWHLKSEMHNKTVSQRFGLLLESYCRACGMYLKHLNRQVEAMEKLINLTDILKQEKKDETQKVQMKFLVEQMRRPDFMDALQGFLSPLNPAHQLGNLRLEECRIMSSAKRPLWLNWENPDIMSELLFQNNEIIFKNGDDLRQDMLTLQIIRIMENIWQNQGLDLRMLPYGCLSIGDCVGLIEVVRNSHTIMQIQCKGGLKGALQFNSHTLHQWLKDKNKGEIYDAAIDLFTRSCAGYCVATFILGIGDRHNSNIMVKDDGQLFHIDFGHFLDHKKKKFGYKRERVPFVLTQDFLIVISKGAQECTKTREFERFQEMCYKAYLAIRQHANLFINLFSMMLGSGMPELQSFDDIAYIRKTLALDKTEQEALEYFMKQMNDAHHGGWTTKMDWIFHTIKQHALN
PI3K alpha, sequence (P27986 whole entry partner, species assumed): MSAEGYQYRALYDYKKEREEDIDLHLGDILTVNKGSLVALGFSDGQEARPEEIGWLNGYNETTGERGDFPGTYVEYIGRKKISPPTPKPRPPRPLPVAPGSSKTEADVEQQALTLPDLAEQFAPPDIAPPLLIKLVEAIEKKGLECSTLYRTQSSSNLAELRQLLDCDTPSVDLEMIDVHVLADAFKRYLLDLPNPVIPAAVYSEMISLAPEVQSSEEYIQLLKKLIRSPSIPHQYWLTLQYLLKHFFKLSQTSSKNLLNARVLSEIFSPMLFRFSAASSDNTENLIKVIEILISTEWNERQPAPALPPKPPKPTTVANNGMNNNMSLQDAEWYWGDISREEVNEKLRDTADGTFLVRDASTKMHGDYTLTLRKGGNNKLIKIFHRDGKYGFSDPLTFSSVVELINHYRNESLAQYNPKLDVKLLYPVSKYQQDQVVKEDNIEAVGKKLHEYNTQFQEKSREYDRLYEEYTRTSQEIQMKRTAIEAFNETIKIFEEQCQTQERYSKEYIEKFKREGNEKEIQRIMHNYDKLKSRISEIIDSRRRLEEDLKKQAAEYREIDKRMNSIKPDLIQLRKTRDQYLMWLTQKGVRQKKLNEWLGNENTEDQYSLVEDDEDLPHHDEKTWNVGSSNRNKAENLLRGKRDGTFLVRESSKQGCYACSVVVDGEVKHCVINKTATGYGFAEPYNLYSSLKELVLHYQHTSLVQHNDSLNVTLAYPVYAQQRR

SMILES	PAMPA Pe [1]	Buffer Stability (37° C.) % Remaining (at 16-23 hours) SGF [2] [%]	Buffer Stability (37° C.) % Remaining (at 16-23 hours) SIF [2] [%]	Buffer Stability (37° C.) % Remaining (at 16-23 hours) pH 1 [2] [%]	Buffer Stability (37° C.) % Remaining (at 16-23 hours) pH 4.5 [2] [%]	Buffer Stability (37° C.) % Remaining (at 16-23 hours) pH 6.6 [2] [%]	Buffer Stability (37° C.) % Remaining (at 16-23 hours) pH 7.4 [2] [%]	Buffer Stability (37° C.) % Remaining (at 16-23 hours) pH 9 [2] [%]	Papp A→B [3] [×10⁻⁶ cm/s]	Papp B→A [3] [×10⁻⁶ cm/s]	half-life [4] [min]	half-life [5] [min]	Plasma Stability (37° C.) % Remaining (3-3.5 hours) nude mouse [6] [%]	half-life [8] [min]	IC50 [9] [µM]	Plasma Stability (37° C.) % Remaining (3-3.5 hours) rat [10] [%]	IC50 [12] [µM]	other results
COc1ccc2c(c1)c(/C=C1\Oc3cc(OC(=O)N(C)C)cc(OC(=O)N(C)C)c3C1=O)cn2CCCN(C)C [Example 8, (2Z)-2-({1-[3-(dimethylamino)propyl]-5-methoxy-1H-indol-3-yl}methylene)-3-oxo-2,3-dihydro-1-benzofuran-4,6-diyl bis(dimethylcarbamate)]	4.53 10e−6 cm/s	100	100	100	100	100	100	91	4.82	7.22	> 30	23	7	15	> 10	50	–	plasma prodrug concentration ([7]; 0.5 h): 3122, ng, ml; tumor prodrug concentration ([7]; 0.5 h): 2170, ng, ml; plasma prodrug concentration ([7]; 2 h): 3876, ng, ml; tumor prodrug concentration ([7]; 2 h): 4820, ng, ml; tumor prodrug concentration ([7]; 6 h): 1482, ng, ml; plasma prodrug concentration ([7]; 6 h (third value)): 2170, ng, ml; plasma prodrug concentration ([7]; 10 h): 497 ng, ml; tumor prodrug concentration ([7]; 10 h): 556 ng, ml; plasma prodrug concentration ([7]; 24 h): 3 ng, ml; tumor prodrug concentration ([7]; 24 h): bql; blood 4-OH, 6-OR mono prodrug concentration (metabolite) ([7]; prodrug 50 mg, 24 h): bql; blood 6-OH, 4-OR mono prodrug concentration (metabolite) ([7]; prodrug 50 mg, 24 h): bql; tumor 4-OH, 6-OR mono prodrug concentration (metabolite) ([7]; prodrug 50 mg, 24 h): bql; tumor 6-OH, 4-OR mono prodrug concentration (metabolite) ([7]; prodrug 50 mg, 24 h): bql; blood precursor phenolic cpd concentration (metabolite) ([7]; prodrug 50 mg, all time points (0.5, 2, 6, 10, 24 h)): bql at all; solubility [11]: 28 µg/mL (≈ 50.9 µM)
COc1ccc2c(c1)c(/C=C1\Oc3cc(OC(=O)N(C)C)cc(OC(=O)N(C)C)c3C1=O)c(C)n2CCN1CCN(C)CC1 [Example 12, (2Z)-2-({5-methoxy-2-methyl-1-[2-(4-methylpiperazin-1-yl)ethyl]-1H-indol-3-yl}methylene)-3-oxo-2,3-dihydro-1-benzofuran-4,6-diyl bis(dimethylcarbamate)]	0.78 10e−6 cm/s	100	100	100	100	100	100	90	1.98	3.36	23	23	32	9	> 10	71	–	plasma prodrug concentration ([7]; 0.5 h): 2444, ng, ml; tumor prodrug concentration ([7]; 0.5 h): 344, ng, ml; plasma prodrug concentration ([7]; 2 h): 3871, ng, ml; tumor prodrug concentration ([7]; 2 h): 1278, ng, ml; tumor prodrug concentration ([7]; 6 h): 629 ng, ml; plasma prodrug concentration ([7]; 6 h (third value)): 2027, ng, ml; plasma prodrug concentration ([7]; 10 h): 443 ng, ml; tumor prodrug concentration ([7]; 10 h): 69 ng, ml; plasma prodrug concentration ([7]; 24 h): 1 ng, ml; tumor prodrug concentration ([7]; 24 h): bql; tumor precursor phenolic cmpd concentration (metabolite) ([7]; prodrug 50 mg, 6 h (third value)): bql; blood 4-OH, 6-OR mono prodrug concentration (metabolite) ([7]; prodrug 50 mg, 24 h): bql; blood 6-OH, 4-OR mono prodrug concentration (metabolite) ([7]; prodrug 50 mg, 24 h): bql; tumor 6-OH, 4-OR mono prodrug concentration (metabolite) ([7]; prodrug 50 mg, 24 h): bql; solubility [11]: 40 µg/mL (≈ 66 µM)
CN(C)C(=O)Oc1cc(OC(=O)N(C)C)c2c(c1)O/C(=C\c1cn(C)c3nccc(-c4ccccc4)c13)C2=O [Example 43, (2Z)-2-[(1-methyl-4-phenyl-1H-pyrrolo[2,3-b]pyridin-3-yl)methylene]-3-oxo-2,3-dihydro-1-benzofuran-4,6-diyl bis(dimethylcarbamate)]	Undetected	100	100	100	100	100	100	100	2.2	1	–	12	52	11	> 10	54	> 4	–
CN(C)C(=O)Oc1cccc2c1C(=O)/C(=C/c1cn(C)c3nccc(N4CC5CCC(C4)O5)c13)O2 [Example 44, (2Z)-2-{[1-methyl-4-(8-oxa-3-azabicyclo[3.2.1]oct-3-yl)-1H-pyrrolo[2,3-b]pyridin-3-yl]methylene}-3-oxo-2,3-dihydro-1-benzofuran-4-yl dimethylcarbamate]	Undetected	102	100	102	100	100	100	100	–	–	3	4	64	8	2.49	51	0.031	–
COc1ccc2c(c1)c(/C=C1\Oc3cc(OC(=O)N(C)c4ccccc4)ccc3C1=O)c(C)n2CCN1CCN(C)CC1 [Example 46, (2Z)-2-({5-methoxy-2-methyl-1-[2-(4-methylpiperazin-1-yl)ethyl]-1H-indol-3-yl}methylene)-3-oxo-2,3-dihydro-1-benzofuran-6-yl methyl(phenyl)carbamate]	Undetected	98	100	101	99	98	97	96	–	–	10	–	19	–	–	22	> 4	–
COc1ccc2c(c1)c(/C=C1\Oc3cc(OC(=O)N(C(C)C)C(C)C)ccc3C1=O)c(C)n2CCN1CCN(C)CC1 [Example 47, (2Z)-2-({5-methoxy-2-methyl-1-[2-(4-methylpiperazin-1-yl)ethyl]-1H-indol-3-yl}methylene)-3-oxo-2,3-dihydro-1-benzofuran-6-yl diisopropylcarbamate]	Undetected	98	94	97	100	95	100	96	–	–	16	–	82	–	> 10	92	> 4	–
CN(C)C(=O)Oc1cc(OC(=O)N(C)C)c2c(c1)O/C(=C\c1cn(C)c3cccc(-c4ccccc4)c13)C2=O [Example 48, (2Z)-2-[(1-methyl-4-phenyl-1H-indol-3-yl)methylene]-3-oxo-2,3-dihydro-1-benzofuran-4,6-diyl bis(dimethylcarbamate)]	Undetected	100	100	100	100	100	100	100	0.5	0.5	–	14	80	25	> 10	>100	3.15	–
Cn1c(=O)n(-c2ccc(C(C)(C)C#N)cc2)c2c3cc(-c4cnc5ccccc5c4)ccc3ncc21 [NVP-BEZ-235, 2-methyl-2-(4-(3-methyl-2-oxo-8-(quinolin-3-yl)-2,3-dihydro-1H-imidazo[4,5-c]quinolin-1-yl)phenyl)propanenitrile]	–	–	–	–	–	–	–	–	–	–	–	–	–	–	–	–	–	activity in human tumor xenograft models [13]: demonstrated activity
